In US7390910B2, “Compounds for treating tumors” (priority 2003, dated 2008):
Marks after values point to notes of the source that are not given here.

Key:
[1] = test system: KB85; test: cells; assay type: cell-based; conditions: for IC50: 3 days, SRB; for inhibition at 3 µM: 3000 nM
Description: (§1) Cell Survival Assay: Standard Pharmacological Test Procedure. […] Compounds are incubated with cells for 3 days.

[2] = test system: KB cells; test: cells; assay type: cell-based; conditions: for IC50: 3 days, SRB; for inhibition at 3 µM: 3000 nM
Description: as §1

[3] = test system: KBV1; test: cells; assay type: cell-based; conditions: for inhibition at 3 µM: KB-V1, 3000 nM; for IC50: 3 days, SRB
Description: as §1

[4] = test system: bovine microtubule-associated protein (MAP)-rich tubulin; assay type: biochemical
Outline: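 This in vitro polymerization assay used bovine tubulin rich in microtubule-associated proteins, prepared at 1.5 mg/ml in GPEM (PEM buffer containing 1 mM GTP) and cleared by a 12,000×g spin. Tubulin solution (100 μl/well) was dispensed onto duplicate 10 μl test samples. Control wells held 0.3% DMSO. A SpectraMax Plus reader recorded turbidity at 340 nm every minute over 60 min at 24° C.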

Row | Structure (SMILES) | IC50 ([1]; 72 h) [nM] | IC50 ([2]; Homo sapiens, KB, 72 h) [nM] | inhibition at 3 µM ([3]; Homo sapiens) [%] | Tubulin Polym. % inhibition at 0.3 uM [4] | IC50 ([3]; Homo sapiens, KB-V1, 72 h) [nM] | further results
1 | CN[C@@H](C(=O)N[C@H](C(=O)N(C)[C@H](/C=C(\C)C(=O)N1CCOCC1)C(C)C)C(C)(C)C)C(C)(C)c1cc(C)cc(C)c1 [Example 5, N,β,β,3,5-Pentamethyl-D-phenylalanyl-N^1-[(1S,2E)-1-isopropyl-3-methyl-4-morpholin-4-yl-4-oxobut-2-enyl]-N^1,3-dimethyl-L-valinamide] | 459 | 207 | 40 | 57% | – | –
2 | CN[C@H](C(=O)N[C@H](C(=O)N(C)[C@H](/C=C(\C)C(=O)N1CCC[C@H]1C(=O)OC)C(C)C)C(C)(C)C)C(C)(C)c1cc(C)cc(C)c1 [Example 19, N,β,β,3,5-Pentamethyl-L-phenylalanyl-N^1-{(1S,2E)-4-[(2S)-2-(methoxycarbonyl)pyrrolidin-1-yl]-1-isopropyl-3-methyl-4-oxobut-2-enyl}-N^1,3-dimethyl-L-valinamide] | 50 | 5.9 | – | 66% | 1550 | –
3 | CNC(C(=O)NC(C(=O)N(C)C(C=C(C)C(=O)CO)C(C)C)C(C)(C)C)C(C)(C)c1ccccc1 (stereo not shown) [Example 90, N-{1-[(5-Hydroxy-1-isopropyl-3-methyl-4-oxo-pent-2-enyl)-methyl-carbamoyl]-2,2-dimethyl-propyl}-3-methyl-2-methylamino-3-phenyl-butyramide] | 68 | 43 | – | – | 1130 | Tubulin Polym. % inhibition at 0.5 uM [4]: 76*** %
4 | CN[C@H](C(=O)N[C@H](C(=O)N(C)[C@H](/C=C(\C)C(=O)NCc1ccc(-c2ccccc2)cc1)C(C)C)C(C)(C)C)C(C)(C)c1ccccc1 [Example 53, N,β,β-trimethyl-L-phenylalanyl-N-1-{(1S,2E)-4-[(1,1′-biphenyl-4-ylmethyl)amino]-1-isopropyl-3-methyl-4-oxobut-2-enyl}-N^1,3-dimethyl-L-valinamide] | – | – | – | 11% | – | IC50 [1]: 1680 nM; IC50 [2]: 667 nM; KBV1 % inhibition @ 3000 nM ([3]; 3000 nM): 29%
5 | CN[C@H](C(=O)N[C@H](C(=O)N(C)[C@H](/C=C(/C)S(=O)(=O)O)C(C)C)C(C)(C)C)C(C)(C)c1ccccc1 [Example 67, N,β,β-trimethyl-L-phenylalanyl-N^1-[(1S,2Z)-1-isopropyl-3-sulfobut-2-enyl]-N^1,3-dimethyl-L-valinamide] | – | – | 0 | 21% | – | inhibition at 3 µM [1]: 0%; inhibition at 3 µM ([2]; Homo sapiens, 72 h): 0%
6 | CN[C@H](C(=O)N[C@H](C(=O)N(C)[C@H](/C=C(\C)C(=O)N1CCCC[C@H]1C(=O)OC)C(C)C)C(C)(C)C)C(C)(C)c1ccccc1 [Example 49, N,β,β-trimethyl-L-phenylalanyl-N^1-{(1S,2E)-1-isopropyl-4-[(2S)-2-(methoxycarbonyl)piperidin-1-yl]-3-methyl-4-oxobut-2-enyl}-N^1,3-dimethyl-L-valinamide] | 17 | 5.2 | – | 62(2) % | 150 | –
7 | CN[C@H](C(=O)N[C@H](C(=O)N(C)[C@H](/C=C/P(=O)(OC)OC)C(C)C)C(C)(C)C)C(C)(C)c1ccccc1 [Example 68, N,β,β-trimethyl-L-phenylalanyl-N^1-[(1S,2E)-3-(dimethoxyphosphoryl)-1-isopropylprop-2-enyl]-N^1,3-dimethyl-L-valinamide] | 2080 | 1980 | 8 | 45% | – | –
8 | CN[C@H](C(=O)N[C@H](C(=O)N(C)[C@H](/C=C1\NC(=O)NC1=O)C(C)C)C(C)(C)C)C(C)(C)c1ccccc1 [Example 85, N,β,β-trimethyl-L-phenylalanyl-N^1-{(1S)-1-[(Z)-(2,5-dioxo-4-imidazolidinylidene)methyl]-2-methylpropyl}-N^1,3-dimethyl-L-valinamide] | 1740 | 1070 | 10 | 59% | – | –
9 | CN[C@H](C(=O)N[C@H](C(=O)N(C)[C@H](/C=C(\C)C(=O)N1CCC[C@H]1C(=O)O)C(C)C)C(C)(C)C)C(C)(C)c1ccccc1 [Example 36, N,β,β-trimethyl-L-phenylalanyl-N^1-{(1S,2E)-4-[(2S)-2-carboxypyrrolidin-1-yl]-1-isopropyl-3-methyl-4-oxobut-2-enyl}-N^1,3-dimethyl-L-valinamide] | 205 | 62 | 0 | 97% | – | –
10 | CN[C@H](C(=O)N[C@H](C(=O)N(C)[C@H](/C=C(\C)C(=O)N1CCC[C@H]1C(=O)OC)C(C)C)C(C)(C)C)C(C)(C)C1CCCCC1 [Example 45, 3-cyclohexyl-N-methyl-L-valyl-N^1-{(1S,2E)-4-[(2S)-2-(methoxycarbonyl)pyrrolidin-1-yl]-1-isopropyl-3-methyl-4-oxobut-2-enyl}-N^1,3-dimethyl-L-valinamide] | 16 | 3.7 | – | 62(2) % | 493 | –
11 | CCOP(=O)(OCC)/C(C)=C/[C@H](C(C)C)N(C)C(=O)[C@@H](NC(=O)[C@@H](NC)C(C)(C)c1ccccc1)C(C)(C)C [Example 71, N,β,β-trimethyl-L-phenylalanyl-N^1-[(1S,2E)-3-(diethoxyphosphoryl)-1-isopropyl-but-2-enyl]-N^1,3-dimethyl-L-valinamide] | 1750 | 1300 | 0 | 64% | – | –
12 | CN[C@H](C(=O)N[C@H](C(=O)N(C)[C@H](/C=C(\C)C(=O)N1C[C@H](O)C[C@H]1C(=O)OC)C(C)C)C(C)(C)C)C(C)(C)c1ccccc1 [Example 40, N,β,β-trimethyl-L-phenylalanyl-N^1-{(1S,2E)-4-[(2S,4R)-2-(methoxycarbonyl)-4-hydroxypyrrolidin-1-yl]-1-isopropyl-3-methyl-4-oxobut-2-enyl}-N^1,3-dimethyl-L-valinamide] | 116 | 3.5 | 4 | – | – | Tubulin Polym. % inhibition at 0.5 uM [4]: 93*** %
13 | CN[C@H](C(=O)N[C@H](C(=O)N(C)[C@H](/C=C(\C)C(=O)N1CCC[C@@H]1C(=O)O)C(C)C)C(C)(C)C)C(C)(C)c1ccccc1 [Example 43, N,β,β-trimethyl-L-phenylalanyl-N^1-{(1S,2E)-4-[(2R)-2-carboxypyrrolidin-1-yl]-1-isopropyl-3-methyl-4-oxobut-2-enyl}-N^1,3-dimethyl-L-valinamide] | 1580 | 515 | 0 | 91% | – | –
14 | CN[C@H](C(=O)N[C@H](C(=O)N(C)[C@H](/C=C/S(=O)(=O)O)C(C)C)C(C)(C)C)C(C)(C)c1ccccc1 [Example 64, N,β,β-trimethyl-L-phenylalanyl-N^1-[(1S,2E)-1-isopropyl-3-sulfoprop-2-enyl]-N^1,3-dimethyl-L-valinamide] | – | – | 0 | 86% | – | inhibition at 3 µM [1]: 1%; inhibition at 3 µM ([2]; Homo sapiens, 72 h): 2%
15 | CN[C@H](C(=O)N[C@H](C(=O)N(C)[C@H](/C=C(\C)C(=O)N1CCN(Cc2ccccc2)CC1)C(C)C)C(C)(C)C)C(C)(C)c1cccc(Cl)c1 [Example 16, 3-Chloro-N,β,β-trimethyl-L-phenylalanyl-N^1-[(1S,2E)-4-(4-benzylpiperazin-1-yl)-1-isopropyl-3-methyl-4-oxobut-2-enyl]-N^1,3-dimethyl-L-valinamide] | 60 | 39 | – | 62% | 803 | –
16 | C/C(=C\[C@H](C(C)C)N(C)C(=O)[C@@H](NC(=O)C1N(C)CCSC1(C)C)C(C)(C)C)C(=O)O (stereo partly drawn) [Example 58, (2E,4S)-2,5-dimethyl-4-(methyl{3-methyl-N-[(2,2,4-trimethylthiomorpholin-3-yl)carbonyl]-L-valyl}amino)hex-2-enoic acid] | 550 | 427 | 15 | 89(2) % | – | –
17 | CN[C@H](C(=O)N[C@H](C(=O)N(C)[C@H](/C=C(\C)C(O)c1ccccc1)C(C)C)C(C)(C)C)C(C)(C)c1ccccc1 (stereo partly drawn) [Example 74, N,β,β-trimethyl-L-phenylalanyl-N-1-[(1S,2E)-4-hydroxy-1-isopropyl-3-methyl-4-phenylbut-2-enyl}-N-1,3-dimethyl-L-valinamide] | – | – | – | 73% | – | IC50 [1]: 54 nM; IC50 [2]: 19 nM; IC50 [3]: 466 nM
18 | CN[C@H](C(=O)N[C@H](C(=O)N(C)[C@H](/C=C(\C)C(=O)N1CCC[C@H]1C(=O)OC)C(C)C)C(C)(C)C)C(C)(C)c1cccc(Cl)c1 [Example 23, 3-Chloro-N,β,β-trimethyl-L-phenylalanyl-N^1-{(1S,2E)-4-[(2S)-2-(methoxycarbonyl)pyrrolidin-1-yl]-1-isopropyl-3-methyl-4-oxobut-2-enyl}-N^1,3-dimethyl-L-valinamide] | 6.2 | 2.5 | – | 88% | 362 | –
19 | CN[C@H](C(=O)N[C@H](C(=O)N(C)[C@H](/C=C(\C)C(=O)O)C(C)C)C(C)(C)C)C12CC3CC(CC(C3)C1)C2 [Example 55, (2E,4S)-4-[{N-[(2S)-2-(1-adamantyl)-2-(methylamino)ethanoyl]-3-methyl-L-valyl}(methyl)amino]-2,5-dimethyl-2-hexenoic acid] | 646 | 603 | 13 | 66% | – | –
